90 molecules from the OPERA property sets (Mansouri et al. 2018) can be followed below.

On to `CCOC(=O)C(=Cc1ccccc1C)C(C)=O`, for which the logP (usually the decadic logarithm of the partition coefficient of the neutral form, usually between octanol and water) worked out at 2.66. The value for `CCCCNc1nnc(C(C)C)c(=O)n1N` was 1.78. The value for `O=C(O)Cc1ccc(OCc2ccccc2)c(Br)c1` was 3.51; that for `Nc1ccccc1C(c1ccc(O)cc1)c1ccc(O)cc1` was 3.16; that for `CC12CCC(=O)C=C1CCC1C3CCC4(CCC(=O)O4)C3(C)CC3OC312` (stereo not given) was 1.89. The value for `CCN(CC)CCNC(=O)c1cc(S(C)(=O)=O)ccc1OC` was 0.9.

`CCCOc1cccc(O)c1` gave a logP of 2.59.

With `O=C(Nc1ccccc1)NC(CO)(CO)CO`, the logP was 0.43. The value for `CC1=Nc2ccc(C(F)(F)F)cc2S(=O)(=O)N1` was 1.51. Consider `CCCCC(C)n1nnc2ccccc21` (stereo not given), for which the lipophilicity (logP) was determined as 3.44. The value for `Clc1cc(Cl)c(Cl)c(-c2c(Cl)ccc(Cl)c2Cl)c1` was 7.15; that for `CCCCCCCC[n+]1ccc(C)cc1C.[I-]` was -0.57; that for `CCOC(=O)CN(C(=O)CCl)c1ccccc1Cl` was 2.3. In the case of `COc1cc(-n2[nH]c(C)cc2=O)ncn1`, the logP was determined as 0.99. For `CCCS(=O)(=O)c1cc(OC)c(OC)c(OC)c1` the value was 1.56; for `FC(F)(F)c1nc2c(Cl)cc(Cl)cc2[nH]1`, 3.49.

`CCCCCC[n+]1ccccc1C.[I-]` came in with a logP of -1.71. The molecule `NC1CC2CC1c1cc(C(F)(F)F)ccc12` (stereo not given) returned a logP of 3.19. Regarding `CCOC(=O)C(=Cc1ccc(OC)cc1)C(=O)OCC`, the logP was found to be 3.28. `COc1c(Cl)cc(Cc2cnc(N)nc2N)cc1Cl` came in with a logP of 2.78. `O=C(O)c1ccccc1Nc1cccc(O)c1` yielded a logP of 3.49. The value for `O=C(c1ccncc1)c1ccc([N+](=O)[O-])cc1` was 1.76; that for `CS(=O)(=O)c1cccc(CC(=O)O)c1` was 0.06; that for `Nc1ccc(C(O)C(CO)NC(=O)C(Cl)Cl)cc1` (stereo not given) was -0.29. With `CC1=Nc2ccc(C)cc2S(=O)(=O)N1`, the log partition coefficient (logP) was 0.81. With `COc1ccc(N=NN(C)C(C)=O)cc1`, the logP was 2.61. `COc1cccc(Cc2cnc(N)nc2N)c1`: the logP amounted to 1.54. `CCOC(=O)C(C#N)=NNc1cccc(Cl)c1` had a logP of 3.94.

In the case of `CNC(=S)NCCSCc1nc[nH]c1C`, the logP came out at 0.5. The value for `CCC(C)n1nnc2ccccc21` (stereo not given) was 2.31; that for `S=C1CCCCCCCN1` was 1.44. `Cc1ccccc1N1C(=O)CCC1=O`: the logP came to 0.29.

As for `COc1cc(C)nc(-n2nc(C)cc2OC)n1`, the logP amounted to 1.26. In turn, `Clc1cc(Cl)cc(-c2c(Cl)c(Cl)cc(Cl)c2Cl)c1` registered a logP of 7.37. The value for `CNC(=N)NC(=N)Nc1ccc(Cl)cc1` was 1.58; that for `O=C(NCC(O)c1ccc([N+](=O)[O-])cc1)C(F)(F)F` (stereo not given) was 1.46. The molecule `CN1CCN(N=O)CC1` returned a logP of 0.2. The molecule `CCCCCCCCCCCC[n+]1ccc(C)c(C)c1.[I-]` gave a lipophilicity (logP) of 1.75.

Regarding `CCc1ccccc1N1C(=O)CCC1=O`, the logP amounted to 0.64. Take `CC1(C)SC2C(NC(=O)Cc3ccc(Cl)cc3Cl)C(=O)N2C1C(=O)O` (stereo not given): the logP stood at 3.3.

For the molecule `NC1=NC(=O)C(=Cc2ccc([N+](=O)[O-])o2)S1`, the log partition coefficient (logP) came to 1.09. For `COc1cc(Cc2cnc(N)nc2N)c(Cl)c(OC)c1` the value was 2.13. With `Cc1ncc([N+](=O)[O-])n1CCCS(C)(=O)=O`, the logP is -1. For `COP(=O)(NCC(C)C)SC` (stereo not given) the value was 0.97; for `NC(=O)c1[nH]cnc1/N=N/N(CCO)CCO`, -1.09. In the case of `N#Cc1ccc2c(c1)C(c1ccccc1)=NCC(=O)N2`, the logP is 1.82. The value for `O=C(CN1CCCCC1)Nc1ccccc1Cl` was 2.76; that for `CN(C(=O)COc1ccccc1)c1ccccc1` was 2.25; that for `Cc1cc(NC(=O)NC(=N)N)ccc1Cl` was 2.19. For `FC(F)(F)COC1C(Cl)C(Cl)C(Cl)C(Cl)C1Cl` (stereo not given) the value was 4.15. `C#CC(C=C)(CC)OC(N)=O` (stereo not given) showed a logP of 1.09. The value for `Nc1nc(N)nc(-c2cc(Br)ccc2Br)n1` was 2.09; that for `COC(=O)[C@@H]1[C@@H](C=C(C)C)C1(C)C` was 3.76; that for `CCC12CC3CC(N)(C1)CC(CC)(C3)C2` was 4.36. In turn, `OCCCCCCn1nnc2ccccc21` registered a logP of 1.71. The value for `O=C1CN=C(c2c(F)cccc2F)c2ccc(Cl)cc2N1` was 2.88; that for `CNC(=O)ON=Cc1cccc(Oc2ccccc2)c1` was 3.12; that for `CNC(=O)Oc1cccc(I)c1` was 2.52. The value for `CN1CCN=C1Nc1ncc([N+](=O)[O-])s1` was 1.8. As for `COc1cc(Cc2cnc(N)nc2N)ccc1O`, the logP stood at 0.64. For `CS(=O)(=O)Oc1ccccc1Cc1cnc(N)nc1N` the value was 0.71; for `CCc1ccc(N=NN(C)C(C)=O)cc1`, 3.36. For `CN(C)Cc1cccs1` the value was 1.67. For `Nc1ncc(Cc2cc(Cl)c(Cl)cc2Cl)c(N)n1` the value was 3.79. In turn, `COc1ccc(Cc2cnc(N)nc2N)cc1N` returned a logP of 0.76. The value for `CCc1ccc(O[Si]23OCCN(CCO2)CCO3)cc1` was 0.56. For the molecule `CN(C)CCCC(c1ccccc1)c1ccc(C(C)(C)C)cc1` (stereo not given), the logP was found to be 5.72. For `Cn1nnc2ccccc21` the value was 1.13; for `O=C(Nc1n[nH]c(NC(=O)C(F)(F)F)n1)C(F)(F)F`, 0.62; for `COc1ccc(C(N)=O)cc1N=NN(C)C`, 0.44. Regarding `COCN1C(=O)CN=C(c2ccccc2Cl)c2cc(Cl)ccc21`, the logP came out at 3.23. For `CCC(=O)OCC(=O)[C@@]1(O)[C@@H](C)C[C@H]2[C@@H]3CCC4=CC(=O)C=C[C@]4(C)[C@@]3(F)[C@@H](O)C[C@@]21C` the value was 3.06; for `COc1ccccc1NCC#N`, 1.3. The value for `Cc1cnc2cccc(C)n2c1=O` was 1.26; that for `CCCCN(SN(C)C(=O)Oc1cccc2c1OC(C)(C)C2)C(=O)OC` was 4.6; that for `CCOC(=O)C(=Cc1ccc(OC)c(OC)c1)C(C)=O` was 2.02. In turn, `CON(C)C(=O)Nc1cccc(F)c1` displayed a logP of 1.68. For `CCCOn1c(=O)[nH]c(C)c(SC#N)c1=O` the value was -0.22. Molecule `CCNCNC(=O)c1ccccc1` had a logP of 0.56. For `CCOC(=O)C(=Cc1ccccc1Cl)C(=O)OCC` the value was 3.15; for `CNc1ccc(S(N)(=O)=O)cc1`, 0.08; for `CC(C)CNC(=O)NN`, -0.84.

For the molecule `CN(C)C(=O)Nc1cccc(OCCc2ccccc2)c1`, the logP came to 3.39. The value for `Nc1ncnc2ccccc12` was 1.28; that for `CNc1cc(Cc2cnc(N)nc2N)cc(N(C)C(C)=O)c1C` was 0.53; that for `O=C1CN=C(c2c(F)cccc2F)c2cc(Cl)ccc2N1` was 2.68. Take `Fc1cccc(F)c1N=C1NCCN1`: the logP was found to be 0.93.

For the molecule `Brc1cccc(Br)c1NC1=NCCN1`, the logP was found to be 1.96. For `NC(=S)NN=Cc1cccc(O)c1` the value was 1.61. Molecule `CN(C)/N=N/c1cc(C(N)=O)cc(C(N)=O)c1` returned a logP of 0.22.
